Entries after “also recorded” stand apart in the source; their conditions may differ.

Here are results for 1 compound from US12589103B2, “Antimicrobial and antiviral effects of C2-C7 alkyl boronic acids” (CORNELL UNIVERSITY, priority 2019, dated 2026).

For data set [1], the system named is probiotic Lactobacillus spp. In words: Growth of probiotic Lactobacillus strains. Conditions: three Lactobacillus strains.
Data set [2] is described as follows: 8-week toxicity study in mice, drinking water. The class given is in vivo, C57/B18 mice. The method, then:
The toxicity of boric and ethylboronic acids were examined with C57/B18 mice. At concentrations of 0, 10, 20, and 40 mM, the two chemicals were given to each group (6 mice) in drinking water. The body weight of each mouse was recorded weekly for 8 weeks, and fecal samples were also collected weekly for 16s sequencing. All animals were sacrificed at the end of 8th week. The length of whole intestine and ileum of each mouse was measured, and sections of the intestine (i. e. small intestine, ileum, cecum, and large intestine) were taken for histopathological and FISH analysis. Fecal samples were used for 16s and lipocalin analysis.
For lipocalin analysis, mouse fecal pellets were collected and frozen at −80 C during toxicity study. To determine lipocalin activity fecal pellets were diluted in microfuge tubes 1/30 with 0.1% Tween20/PBS and vortexed for 20 min at maximum speed. Undissolved particles were removed by centrifuging at 12,000 rpm for 10 min at 4 C. Supernatant was removed and placed into a clean microfuge tube. Lipocalin activity was determined using Mouse Lipocalin-2/NGAL DuoSet ELISA Kit (R&D Systems, DY1857) per manufacturer's instructions.

The format of data set [3] is in vivo, mouse. From the text: This novel observation of an anti-inflammatory effect of EBA was corroborated in subsequent collaborative studies. […] These experiments confirm that EBA has an anti-inflammatory effect in two distinct murine models of microbially driven IBD.
Data set [4] relates to Gram Positive aerobes and probiotic species (Lactobacillus, Bifidobacteria). In words: Bacterial growth panel, impact on non-target species (selectivity). The class given is cell-based.
In data set [5] the test system is AIEC E. coli from dogs (MDR and non-MDR strains). Kind of data set: Growth of MDR and non-MDR E. coli associated with Granulomatous colitis in dogs. It is filed as cell-based. To be noted: 40 mM, LB broth, 48 hrs. The method, then:
The ability of C1-C3 alkyl boronic acids and BA to impact the growth of MDR E. coli isolated from people and dogs was evaluated using a temperature controlled 96-well multiplate incubator at 37° C. over 48 hrs. Growth in media (LB broth) with and without ABA C2-6 (40 mM) was monitored by readings at OD600 with the AUC of the growth curve calculated.
Non-MDR strains KD1, KD2, and KD3 were also evaluated.

Data set [6] has as its system Klebsiella pneumonia (13Dk). Kind of data set: Growth in M9 media. To be noted: EBA 10-40 mM.
Data set [7] in a line: DSS induced colitis in mice. It is filed as in vivo, C57BL mice. Conditions: 40 mM in drinking water after DSS (3%). The protocol:
On the basis of favorable in vivo toxicity tests, the ability of BA and EBA to reduce the severity of inflammation in murine models of microbially driven IBD was tested. The effect of BA and EBA (40 mM) on intestinal inflammation was evaluated in mice with dextran sodium sulfate (“DSS”) induced colitis. The DSS model has a complex etiopathogenesis that involves host-immune and inflammatory responses and the enteric microbiome BA To test their protecting ability to the gastrointestinal tract, boric and ethylboronic acid were given to C57BL mice at 40 mM concentration respectively in drinking water after DSS (3%) treatment. Body weight and fecal samples were taken before and after 6-day treatment. At the 6th day, all mice were euthanized for gross necropsy and histopathology. Intestinal sections were collected and embedded for pathological and FISH analysis. Fecal samples were used for 16s and lipocalin analysis.

Data set [8] concerns typhoid toxin B subunit (CdtB). It is filed as cell-based, Salmonella typhi.

For `CCB(O)O` [EBA, ethyl boronic acid], in data set [1], the “growth of probiotic Lactobacillus spp” value was “do not suppress growth”. The “adverse effects in mice” value in data set [2] (40 mM) is “safely administered to mice without adverse effects”. Besides, the “fecal 16S profiles” value in data set [2] (mouse, in vivo) was “not significantly different from control mice”. Also, the “intestinal inflammation, fecal lipocalin and histopathology” value in data set [3] (SIHUMI colonized 11-10−/− mouse) is recorded as “markedly reduced intestinal inflammation”. For the same compound, in data set [3] (mouse, in vivo), the “adverse or pro-inflammatory effects” value is reported as “no adverse or pro-inflammatory effects”. Besides, in data set [4] (compared with BA), the “selectivity against Probiotic spp” value is “more selective than BA” and the “selectivity versus Gram Positive aerobes” value was “more selective than BA”. The “selectivity: impact on Gram Positive aerobes and probiotic species” value in data set [4] (same concentrations as growth panel) is “less impact on probiotic Lactobacillus, Bacillus, and Gram Positive aerobes; also recorded: more selective than DoDBA; also recorded: more selective than C3-C7 alkyl boronic acids”. Further, in data set [5], the “growth inhibition of canine Granulomatous colitis associated AIEC, MDR and non-MDR” value is “more effective than BA over a wider range of AIEC, including MDR and non-MDR strains”. Also, the “inhibition of growth of Klebsiella pneumonia 13Dk” value in data set [6] was “effective”. Also, in data set [7], the “colon length in DSS colitis versus control mice” value was “not significantly different”, the “fecal lipocalin levels in DSS colitis versus control mice” value is listed as “not significantly different” and the “intestinal bleeding in DSS colitis” value was “absent”. Moreover, in data set [8], the “typhoid toxin (CdtB) production” value is listed as “inhibition of toxin production (CdtB)”.
